≈ marks a conversion by molar mass, not a printed value.
Columns and labels:
B. bronchiseptica = assay: MIC determination, broth-microdilution (CLSI VET01-A4), field isolates; assay type: cell-based, Bordetella bronchiseptica
Protocol: (§1) This study determined the in vitro activity Compound (A), the enantiomer of the compound of Formula (I), against different isolates of Actinobacillus (A.) pleuropneumoniae, Bordetella (B.) bronchiseptica, Mannheimia (M.) haemolytica, Pasteurella (P.) multocida, Histophilus (H.) somni and Glaesserella parasuis collected in different European countries.
(§2) The in vitro activity was determined by measuring the minimum inhibitory concentrations (MIC) according to CLSI document VET01-A4 [1] and by calculating MIC50 and MIC90.
(§3) A total of 193 field isolates were tested: 31 of A. pleuropneumoniae, 20 of B. bronchiseptica, 20 of H. somni, 20 H. parasuis, 55 of M. haemolytica and 47 of P. multocida. All bacteria were isolated from the respiratory tract of cattle and swine suffering from respiratory disease. All isolates were epidemiologically unrelated as specified by the different suppliers. E. coli ATCC 25922 (ID 6105) and M. haemolytica ATCC 33396 (ID 6374) were used as reference strains for testing isolates of B. bronchiseptica, M. haemolytica and P. multocida. A. pleuropneumoniae ATCC 27090 (ID 6314) and H. somni ATCC 700025 (ID 6315) were used as reference strains for the testing isolates of A. pleuropneumoniae, H. somni and Glaesserella parasuis. Additionally, H. parasuis (G. parasuis) ATCC 19417 was included as type strain for growth control.
(§4) • Mueller-Hinton agar (Becton Dickinson, Lot 9224866) • Cation-adjusted Mueller-Hinton broth, (CAVHB, Becton Dickinson, Lot 8190586) • Sheep blood, defibrinated (Thermo Scientific, Lot 37091500) • Chocolate agar, GC II with IsoVitalex™ (Becton Dickinson, Lot 0147695) • GC-agar base (Becton Dickinson, Lot 6082608) • Hemoglobin solution (Becton Dickinson, Lot 7142854) • Vitox (Oxoid, Lot 2344976) • Veterinary fastidious Medium (VFM), prepared according to CLSI document VET01-A4 [1], containing: • CAMHB (Becton Dickinson, Lot 8190586) • Yeast extract (Sigma, Lot BCBS5470V) • Lysed horse blood (Thermo Scientific, Lot 35875000) • Supplement C™ (Becton Dickinson, Lot 8030960) • Deionized water
(§5) The MICs for all isolates except for H. somni and Glaesserella parasuis isolates, were determined by using the broth-microdilution method according to CLSI document VET01-A4 [1]. For isolates of H. somni and Glaesserella parasuis the agar-dilution method with chocolate agar GC II, was used. The test concentration range for all compounds was 16 μg/mL to 0.016 μg/mL.
The MIC results were interpreted according to the CLSI document VET01-S3 [2]. […] All wells containing test item were compared with the growth-control wells. The lowest concentration of compound at which no visible growth (i.e. no turbidity) was detected by the unaided eye was recorded as the MIC. […]

H. somni [1] = assay: MIC determination, broth microdilution, field isolates; assay type: cell-based, Histophilus somni
Protocol: as §1, §2, §3, §4
[…] […] The test concentration range for all compounds was 16 μg/mL to 0.016 μg/mL.
The MIC results were interpreted according to the CLSI document VET01-S3 [2]. […] All wells containing test item were compared with the growth-control wells. The lowest concentration of compound at which no visible growth (i.e. no turbidity) was detected by the unaided eye was recorded as the MIC. If a “trailing endpoint” occurs, the MIC is defined as the first concentration at which a markedly reduction (about 90%) of the inoculum is observed.
[…] […] The MIC50 and MIC90 represent the concentrations at which a minimum of 50% or 90% of the isolates tested are inhibited.

H. somni [2] = assay: MIC determination, agar dilution (chocolate agar GC II), field isolates; assay type: cell-based, Histophilus somni
Protocol: as §1, §2, §3, §4, §5
For isolates tested by the agar-dilution method, results were interpreted according to the CLSI document VET01-S3 [2]. […] The MIC50 and MIC90 represent the concentrations at which a minimum of 50% or 90% of the isolates tested are inhibited.

[3] = Injection site reactions in cattle; assay type: in vivo; conditions: injectable pharmaceutical compositions
Protocol: Cattle injected with injectable pharmaceutical compositions containing Compound (A) were evaluated for reactions at the injection site. These injection site reactions were compared to the injection site reactions of cattle injected with injectable pharmaceutical compositions containing Compounds (B) and (C). The compounds were formulated as aqueous solution injectable pharmaceutical compositions or as suspension injectable pharmaceutical compositions as indicated below. These formulations were prepared as described in Examples 1 and 2. Compound (A) was formulated as both an aqueous solution using the free base form of the compound and as a suspense using the dihydrochloride salt of the compound. The composition of the aqueous solution injectable pharmaceutical composition was 15% w/v of Compound A, 15% w/v Poloxamer […], 6% w/v Benzyl Alcohol, 7% w/v Citric Acid, and QS Water. The composition of the suspension injectable pharmaceutical composition was 15% w/v Compound A (17.5% w/v HCl salt of Compound A), 0.1% w/v Kolliphor HS 15 and QS Miglyol 812. Compound A was administered to the animals in a dose of 10 mg/kilogram of body weight. Compound (B) was formulated as both an aqueous solution using the free base form of the compound and as a suspense using the dihydrochloride salt of the compound. The composition of the aqueous solution injectable pharmaceutical composition was 15% w/v of Compound B, 15% w/v Poloxamer […], 6% w/v Benzyl Alcohol, 7% w/v Citric Acid, and QS Water. The composition of the suspension injectable pharmaceutical composition was 15% w/v Compound B (17.5% w/v HCl salt of Compound B), 0.1% w/v Kolliphor HS 15 and QS Miglyol 812. Compound A was administered to the animals in a dose of 10 mg/kilogram of body weight. Compound (C) was formulated as both an aqueous solution using the free base form of the compound. The composition of the aqueous solution injectable pharmaceutical composition was 10% w/v of Compound C, 15% w/v Poloxamer […], 6% w/v Benzyl Alcohol, 7% w/v Citric Acid, and QS Water. Compound A was administered to the animals in a dose of 10 mg/kilogram of body weight. Injection sites were examined clinically by a trained person, Size of the swelling is measured with a ruler to the closest 0.5 cm horizontally, vertical and depth. These three measured values were multiplied to an estimation of the volume of the square box surrounding the observed swelling.

[4] = system: microbes that cause respiratory disease in animals; assay: Activity against the microbes that cause respiratory disease in animals (statement); assay type: cell-based
[5] = Bordetella bronchiseptica, 20 isolates, broth microdilution

Structure (SMILES): COCCNCc1ccc(C#Cc2ccc(C(=O)N[C@H](C(=O)NO)C(C)(C)N)cc2)cc1 [Compound A]
- MIC50 (B. bronchiseptica; [5]): 8 µg/mL (≈ 18.2 µM)
- MIC90 (B. bronchiseptica; [5]): 16 µg/mL (≈ 36.5 µM)
- Distribution of MICs: number of isolates with MIC 8 μg/mL (B. bronchiseptica; of 20 isolates tested): 10
- Distribution of MICs: number of isolates with MIC 16 μg/mL (B. bronchiseptica; of 20 isolates tested): 10
- MIC50 (H. somni [1]; Histophilus somni, 20 isolates): 0.5 µg/mL (≈ 1.14 µM)
- MIC90 (H. somni [1]; Histophilus somni, 20 isolates): 1 µg/mL (≈ 2.28 µM)
- Distribution of MICs: number of isolates with MIC 0.125 μg/mL (H. somni [1]; of 20 isolates tested): 1
- Distribution of MICs: number of isolates with MIC 0.25 μg/mL (H. somni [1]; of 20 isolates tested): 5
- Distribution of MICs: number of isolates with MIC 0.5 μg/mL (H. somni [1]; of 20 isolates tested): 8
- Distribution of MICs: number of isolates with MIC 1 μg/mL (H. somni [1]; of 20 isolates tested): 5
- Distribution of MICs: number of isolates with MIC 2 μg/mL (H. somni [1]; of 20 isolates tested): 1
- MIC50 (H. somni [2]; Histophilus somni, 20 isolates): 1 µg/mL (≈ 2.28 µM)
- MIC90 (H. somni [2]; Histophilus somni, 20 isolates): 2 µg/mL (≈ 4.56 µM)
- Distribution of MICs: number of isolates with MIC 0.25 μg/mL (H. somni [2]; of 20 isolates tested): 1
- Distribution of MICs: number of isolates with MIC 0.5 μg/mL (H. somni [2]; of 20 isolates tested): 1
- Distribution of MICs: number of isolates with MIC 1 μg/mL (H. somni [2]; of 20 isolates tested): 14
- Distribution of MICs: number of isolates with MIC 2 μg/mL (H. somni [2]; of 20 isolates tested): 4
- Injection site reactions, overall assessment [3]: minor injection reactions which were resolved by Day 6
- Injection site reactions, overall assessment ([3]; listed as Compound (A)): tolerated at the injection site
- Activity against the microbes that cause respiratory disease in animals [4]: activity against the microbes that cause respiratory disease in animals

Reference: US20250057790A1, “AN INJECTABLE PHARMACEUTICAL COMPOSITION FOR THE TREATMENT OF RESPIRATORY DISEASES IN ANIMALS” (priority 2021, published 2025)
